In assay [1] the test system is intracellular calcium concentration. Put plainly: Intracellular calcium ion concentration with calcium probe Fluo4-AM (Example 5). In kind it is cell-based. The settings on record: cariporide 100 μM, empagliflozin 50 μM, menthol 200 μM, combination 50 μM + 200 μM. From the text:
Intracellular calcium overload is an important factor in the transition of myocardial cells from reversible to irreversible damage. Intracellular calcium overload can be seen in a variety of cardiac pathological states, such as cardiac remodeling, myocardial ischemia-reperfusion injury, viral myocarditis, dilated cardiomyopathy, arrhythmias, and congestive heart failure. […] Empagliflozin can act on the sodium-hydrogen exchanger 1 (NHE1) on the myocardial cell membrane. When myocardial ischemia occurs, myocardial cell energy metabolism is impaired, and myocardial cells switch from fatty acid metabolism to sugar-free glycolysis, producing a large amount of lactic acid, which reduces the intracellular pH. As a regulatory protein for cell pH homeostasis, NHE1 can transport H^+ out of the cell by exchanging extracellular sodium ions, resulting in an increase in the intracellular sodium ion concentration. […] When mitochondrial function is impaired, the release of ROS increases, and ROS can further stimulate L-type calcium channels, promoting Ca^2+ influx, creating a vicious cycle. Empagliflozin inhibits the activity of NHE1 and can indirectly reduce the intracellular calcium ion concentration. Menthol, as an L-type calcium channel blocker, can synergistically reduce the intracellular calcium ion concentration with empagliflozin, playing a synergistic role. In order to verify this synergistic mechanism, the intracellular calcium ion concentration was detected using the calcium ion probe Fluo4-AM.
The experiment was divided into 5 groups, including control group (no drug group), cariporide group (positive control group, 100 μM), EMPA-50 (empagliflozin, 50 μM), M-200 (menthol, 200 μM), and E50+M200 (combination of 50 μM empagliflozin and 200 μM menthol).
• (1) Take an appropriate amount of Fluo4-AM stock solution (2 mM, BeyoTime, S1060) and dilute it to a 10 μM working solution with HBSS; • (2) For the cells to be tested (covering the bottom of the dish), remove the culture medium and wash with HBSS three times; • (3) Add 25 μL of Fluo4-AM working solution to each well, and then add 25 μL of compound solution to each well; • (4) Incubate at 37° C. for 30 min for fluorescent probe loading; • (5) Wash three times with HBSS, and add 100 μL of HBSS containing 10 mM CaCl2) to each well. Detect quantitatively the fluorescence of Fluo4-AM using a multifunctional fluorescence microplate reader (excitation wavelength 488 nm, emission wavelength 520 nm) to determine the changes in intracellular calcium ions.
Since empagliflozin indirectly affects intracellular calcium concentration by inhibiting NHE1, the intracellular environment was made acidic by using ammonium chloride solution to simulate the environment during myocardial ischemia, and the effect of the administered composition on intracellular calcium ions was tested. The NHE1 inhibitor cariporide was used as a positive control. The above step (3) was changed to add 25 μL of Fluo4-AM working solution to each well, mix the test compound with 80 mM NH4Cl solution at a 1:1 ratio, and then add 25 μL mixed solution of the compound and NH4Cl to each well (the final concentration of NH4Cl was 20 mM), and the remaining steps were the same as above.
For orientation: Calcium flux is commonly read through the fluorescence of an indicator in the cells.

Assay [2] deals with Rat cardiomyocytes (H9c2). Put plainly: GD-induced myocardial cell damage model, CCK-8, SGLT2 inhibitors with L-menthol (Example 9). The format is cell-based. The settings on record: single drugs: SGLT2 inhibitor 50 μM or menthol 200 μM; GD 36-48 h; untreated group 54.7%.
Method: In this example, the protective effect of the drug composition on myocardial cells was evaluated by using a GD-induced myocardial cell damage model. […] Rat cardiomyocytes (H9c2) were purchased from the Chinese Academy of Sciences Stem Cell Bank. The cardiomyocytes were cultured in high-glucose DMEM medium (Gibco, 11995-065) containing 10% fetal bovine serum and 1% penicillin/streptomycin, and incubated in a 37° C., 5% CO2 incubator. […] When the cells reached confluence, the DMEM medium was removed, and the cells were washed once with PBS. […] The synergistic coefficient was calculated using the Zero interaction dose model, with the formula: CI=(EAB−EA*EB)/(EA+EB−EA*EB), wherein CI is the synergistic effect index, EAB is the efficacy index of the combination of drugs, and EA and EB are the efficacy indices of the individual drugs, respectively.

Turning to `CC(C)c1ccc(C(=O)NC(=N)N)cc1S(C)(=O)=O` [cariporide], the “effect on intracellular calcium concentration (Fluo4-AM fluorescence)” value in assay [1] (NH4Cl present (20 mM, acidic intracellular conditions)) is given as “significantly reduce intracellular calcium concentration”; in assay [1] (absence of NH4Cl), “almost no effect”.
In assay [2], `CCOc1ccc(Cc2cc([C@@H]3O[C@H](CO)[C@@H](O)[C@H](O)[C@H]3O)ccc2Cl)cc1` [dapagliflozin] gave a cell survival rate of 58.9%.
In assay [2], `CCOc1ccc(Cc2cc([C@]34OC[C@](CO)(O3)[C@@H](O)[C@H](O)[C@H]4O)ccc2Cl)cc1` [ertugliflozin] returned a cell survival rate of 58.6%.
For the molecule canagliflozin, the cell survival rate in assay [2] is reported as 60.2%.

The values above are taken from patent US20250360091A1, “COMBINATION OF SGLT2 INHIBITOR AND MENTHOL AND USE THEREOF IN TREATMENT OF HEART DISEASE” (EAST CHINA UNIVERSITY OF SCIENCE AND TECHNOLOGY, priority 2023, published 2025).
